Data published in US4864023A, “Pyrido(3,2,1-IJ)-1,3,4-benzoxadiazine derivatives” (priority 1988, dated 1989).
Values after ≈ are worked out from the molar mass of the structure shown. Where two headings read alike, the source gives them in different places.

Experiments:
Assay in all cases: in vitro antibacterial activity, standard agar dilution method
Format in all cases: cell-based
[1] = system: Bacillus subtilis PCI 219; conditions: PCI219, aerobic, read-out: minimum inhibitory concentration (MIC)
[2] = system: Staphylococcus aureus Smith; conditions: read-out: minimum inhibitory concentration (MIC)
[3] = system: Salmonella typhimurium IFO 12529; conditions: Salmonella enterica, aerobic, read-out: minimum inhibitory concentration (MIC)
[4] = system: Citrobacter freundii IFO 12681; conditions: IFO12681, aerobic, read-out: minimum inhibitory concentration (MIC)
[5] = system: Enterococcus faecalis NR 2943; conditions: NR2943, aerobic, read-out: minimum inhibitory concentration (MIC)
[6] = system: Pseudomonas aeruginosa A3; conditions: aerobic, read-out: minimum inhibitory concentration (MIC)
[7] = system: Enterobacter cloacae NR 2946; conditions: NR2946, aerobic, read-out: minimum inhibitory concentration (MIC)
[8] = system: Bordetella bronchiseptica ATCC 4617; conditions: ATCC4617, aerobic, read-out: minimum inhibitory concentration (MIC)
[9] = system: Staphylococcus aureus FDA 209P JC-1; conditions: FDA209P, read-out: minimum inhibitory concentration (MIC)
[10] = system: Enterobacter aerogenes NR 2945; conditions: Klebsiella aerogenes, NR2945, aerobic, read-out: minimum inhibitory concentration (MIC)
[11] = system: Pseudomonas aeruginosa NR 2950; conditions: NR2950, aerobic, read-out: minimum inhibitory concentration (MIC)
[12] = system: Alcaligenes faecalis IFO 13111; conditions: IFO13111, aerobic, read-out: minimum inhibitory concentration (MIC)
[13] = system: Serratia marcescens IFO 12648; conditions: IFO12648, aerobic, read-out: minimum inhibitory concentration (MIC)
[14] = system: Staphylococcus epidermidis NR 2942; conditions: NR2942, aerobic, read-out: minimum inhibitory concentration (MIC)
[15] = system: Escherichia coli NIHJ JC-2; conditions: NIHJJC2, aerobic, read-out: minimum inhibitory concentration (MIC)
[16] = system: Proteus rettgeri ATCC 14505; conditions: Providencia rettgeri, ATCC14505, aerobic, read-out: minimum inhibitory concentration (MIC)
[17] = system: Staphylococcus aureus NR 2855; conditions: NR2855; Staphylococcus aureus NR 2855; aerobic; agar dilution; read-out: minimum inhibitory concentration (MIC)
[18] = system: Klebsiella pneumoniae FDA PCI 602; conditions: FDAPCI602, aerobic, read-out: minimum inhibitory concentration (MIC)
[19] = system: Proteus vulgaris OX19 ATCC 6898; conditions: ATCC6898, aerobic, read-out: minimum inhibitory concentration (MIC)
[20] = system: Staphylococcus epidermidis IFO 12993; conditions: IFO12993, aerobic, read-out: minimum inhibitory concentration (MIC)
[21] = system: Escherichia coli NR 2630; conditions: NR2630; Escherichia coli NR 2630; aerobic; agar dilution; read-out: minimum inhibitory concentration (MIC)
[22] = system: Pseudomonas stutzeri IFO 12695; conditions: Stutzerimonas stutzeri, IFO12695, aerobic, read-out: minimum inhibitory concentration (MIC)
[23] = Staphylococcus aureus Smith, aerobic, agar dilution
[24] = Staphylococcus aureus FDA 209P JC-1, aerobic, agar dilution

MIC [1] [µg/mL]	MIC [3] [µg/mL]	MIC [4] [µg/mL]	MIC [5] [µg/mL]	MIC [6] [µg/mL]	MIC [7] [µg/mL]	MIC [8] [µg/mL]	MIC [10] [µg/mL]	MIC [11] [µg/mL]	MIC [12] [µg/mL]	MIC [13] [µg/mL]	MIC [14] [µg/mL]	MIC [15] [µg/mL]	MIC [16] [µg/mL]	MIC [17] [µg/mL]	MIC [18] [µg/mL]	MIC [19] [µg/mL]	MIC [20] [µg/mL]	MIC [21] [µg/mL]	MIC [22] [µg/mL]	Structure (SMILES)	further results
0.05 (≈ 0.138 µM)	0.025 (≈ 0.069 µM)	0.05 (≈ 0.138 µM)	12.5 (≈ 34.5 µM)	0.2 (≈ 0.552 µM)	0.05 (≈ 0.138 µM)	3.13 (≈ 8.64 µM)	0.025 (≈ 0.069 µM)	1.56 (≈ 4.31 µM)	3.13 (≈ 8.64 µM)	0.2 (≈ 0.552 µM)	0.39 (≈ 1.08 µM)	0.05 (≈ 0.138 µM)	0.39 (≈ 1.08 µM)	0.78 (≈ 2.15 µM)	0.2 (≈ 0.552 µM)	0.025 (≈ 0.069 µM)	0.39 (≈ 1.08 µM)	0.025 (≈ 0.069 µM)	0.025 (≈ 0.069 µM)	CNC1CCN(c2c(F)cc3c(=O)c(C(=O)O)cn4c3c2OCN4C)C1 (centres unmarked) [Example 31]	MIC [2, 23]: 0.2 µg/mL (≈ 0.552 µM); MIC [9, 24]: 0.39 µg/mL (≈ 1.08 µM)
≤ 0.0008	6.25 (≈ 16.6 µM)	6.25 (≈ 16.6 µM)	12.5 (≈ 33.1 µM)	25 (≈ 66.2 µM)	6.25 (≈ 16.6 µM)	6.25 (≈ 16.6 µM)	3.13 (≈ 8.29 µM)	50 (≈ 132 µM)	6.25 (≈ 16.6 µM)	12.5 (≈ 33.1 µM)	0.39 (≈ 1.03 µM)	6.25 (≈ 16.6 µM)	25 (≈ 66.2 µM)	0.2 (≈ 0.53 µM)	25 (≈ 66.2 µM)	3.13 (≈ 8.29 µM)	0.39 (≈ 1.03 µM)	0.39 (≈ 1.03 µM)	6.25 (≈ 16.6 µM)	COC1CCN(c2c(F)cc3c(=O)c(C(=O)O)cn4c3c2OCN4C)CC1 [Example 38, 9-fluoro-10-(4-methoxy-1-piperidyl)-3-methyl-7-oxo-2,3-dihydro-7H-pyrido[3,2,1-ij]-1,3,4-benzoxadiazine-6-carboxylic acid]	MIC [2, 23]: 0.1 µg/mL (≈ 0.265 µM); MIC [9, 24]: 0.39 µg/mL (≈ 1.03 µM)
0.2 (≈ 0.507 µM)	0.1 (≈ 0.254 µM)	0.1 (≈ 0.254 µM)	12.5 (≈ 31.7 µM)	0.78 (≈ 1.98 µM)	0.2 (≈ 0.507 µM)	0.78 (≈ 1.98 µM)	0.1 (≈ 0.254 µM)	6.25 (≈ 15.8 µM)	3.13 (≈ 7.94 µM)	0.2 (≈ 0.507 µM)	1.56 (≈ 3.96 µM)	0.2 (≈ 0.507 µM)	0.78 (≈ 1.98 µM)	1.56 (≈ 3.96 µM)	0.39 (≈ 0.989 µM)	0.05 (≈ 0.127 µM)	1.56 (≈ 3.96 µM)	0.1 (≈ 0.254 µM)	0.2 (≈ 0.507 µM)	CN1CCN(c2c(F)cc3c(=O)c(C(=O)O)cn4c3c2OCN4CCF)CC1 [Example 69, 9-fluoro-3-(2-fluoroethyl)-10-(4-methyl-1-piperazinyl)-7-oxo-2,3-dihydro-7H-pyrido[3,2,1-ij]-1,3,4-benzoxadiazine-6-carboxylic acid]	MIC [2, 23]: 0.78 µg/mL (≈ 1.98 µM); MIC [9, 24]: 1.56 µg/mL (≈ 3.96 µM)
0.025 (≈ 0.0551 µM)	0.1 (≈ 0.221 µM)	0.1 (≈ 0.221 µM)	1.56 (≈ 3.44 µM)	0.78 (≈ 1.72 µM)	0.2 (≈ 0.441 µM)	0.78 (≈ 1.72 µM)	0.1 (≈ 0.221 µM)	12.5 (≈ 27.6 µM)	3.13 (≈ 6.9 µM)	0.78 (≈ 1.72 µM)	0.1 (≈ 0.221 µM)	0.2 (≈ 0.441 µM)	1.56 (≈ 3.44 µM)	0.1 (≈ 0.221 µM)	0.39 (≈ 0.86 µM)	0.1 (≈ 0.221 µM)	0.1 (≈ 0.221 µM)	0.05 (≈ 0.11 µM)	0.2 (≈ 0.441 µM)	CN1COc2c(N3CCN(Cc4ccc(N)cc4)CC3)c(F)cc3c(=O)c(C(=O)O)cn1c23 [Example 53, 10-[4-(4-aminobenzyl)-1-piperazinyl]-9-fluoro-3-methyl-7-oxo-2,3-dihydro-7H-pyrido[3,2,1-ij]-1,3,4-benzoxadiazine-6-carboxylic acid]	MIC [2, 23]: 0.05 µg/mL (≈ 0.11 µM); MIC [9, 24]: 0.1 µg/mL (≈ 0.221 µM)

Structure (SMILES)	MIC [1] [µg/mL]	MIC [3] [µg/mL]	MIC [4] [µg/mL]	MIC [5] [µg/mL]	MIC [6] [µg/mL]	MIC [7] [µg/mL]	MIC [8] [µg/mL]	MIC [10] [µg/mL]	MIC [11] [µg/mL]	MIC [12] [µg/mL]	MIC [13] [µg/mL]	MIC [14] [µg/mL]	MIC [15] [µg/mL]	MIC [16] [µg/mL]	MIC [17] [µg/mL]	MIC [18] [µg/mL]	MIC [19] [µg/mL]	MIC [20] [µg/mL]	MIC [21] [µg/mL]	MIC [22] [µg/mL]	further results
CN1COc2c(N3CCC(O)C3)c(F)cc3c(=O)c(C(=O)O)cn1c23 (centres unmarked) [Example 21, 9-fluoro-10-(3-hydroxy-1-pyrrolidinyl)-3-methyl-7-oxo-2,3-dihydro-7H-pyrido[3,2,1-ij]-1,3,4-benzoxadiazine-6-carboxylic acid]	0.05 (≈ 0.143 µM)	0.39 (≈ 1.12 µM)	0.78 (≈ 2.23 µM)	3.13 (≈ 8.96 µM)	1.56 (≈ 4.47 µM)	0.78 (≈ 2.23 µM)	0.78 (≈ 2.23 µM)	0.2 (≈ 0.573 µM)	3.13 (≈ 8.96 µM)	0.78 (≈ 2.23 µM)	0.39 (≈ 1.12 µM)	0.39 (≈ 1.12 µM)	0.39 (≈ 1.12 µM)	0.78 (≈ 2.23 µM)	0.2 (≈ 0.573 µM)	0.78 (≈ 2.23 µM)	0.05 (≈ 0.143 µM)	0.39 (≈ 1.12 µM)	0.2 (≈ 0.573 µM)	0.2 (≈ 0.573 µM)	MIC ([2]; Staphylococcus aureus): 0.39 µg/mL (≈ 1.12 µM); MIC ([9]; Staphylococcus aureus): 0.39 µg/mL (≈ 1.12 µM)
